{"source": "paper PMC12133574", "about": "(Nature Immunology, 2025)", "key": {"[1]": {"tested_on": "activated human T cells (viability)", "format": "cell-based", "conditions": "for effect of the substance on T cell viability: activated human T cells"}, "[2]": {"tested_on": "activated human T cells (proliferation)", "test": "cells", "format": "cell-based", "conditions": "for effect of the substance on T cell proliferation: activated human T cells; for restoration of adenosine-mediated inhibition of T cell proliferation: uridine, cytidine all 30 µM; for EC50: Homo sapiens, T-cell"}, "[3]": {"tested_on": "TNF production by activated human T cells", "format": "cell-based"}, "[4]": {"tested_on": "NLVPMVATV-specific CD8^+ T cells in PBMCs", "test": "CMV pp65 antigen recall assay, tetramer staining", "format": "cell-based, human", "conditions": "in the presence of ATP (300 µM); EOS301984 300 nM, anti-PD-1 10 µg ml^-1; representative donor"}, "[5]": {"tested_on": "NLVPMVATV peptide-pulsed T2 cells", "test": "Antigen-specific cell killing assay", "format": "cell-based, human"}, "[6]": {"tested_on": "pyrimidine and purine metabolites in activated human T cells", "format": "cell-based", "conditions": "24 h; for levels of UMP, UDP, UTP and CTP (metabolites downstream of UMPS) / levels of carbamoyl aspartate, DHO and orotate: adenosine-exposed activated human T cells"}, "[7]": {"tested_on": "mitochondrial respiration of activated human T cells", "format": "cell-based"}, "[8]": {"tested_on": "PD-1^+TIM-3^+CD39^+ CD8^+ TILs from NSCLC", "format": "cell-based, human", "conditions": "ex vivo stimulated PD-1^+TIM-3^+CD39^+ CD8^+ T cells, adenosine 100 µM, EOS301984 300 nM"}, "[9]": {"tested_on": "IFNγ production by activated human T cells", "format": "cell-based"}, "activated human T cells": {"tested_on": "activated human T cells", "test": "[3H]adenosine uptake assay", "format": "cell-based", "conditions": "dilazep 1 µM, one value per donor"}, "[10]": {"conditions": "in the presence of 100 µM adenosine, 72 h activation"}}, "note": "Read-outs that look alike come from different tables or passages of the source.", "data": [{"compound": "Nc1ncnc2c1ncn2[C@@H]1O[C@H](COP(=O)(O)OP(=O)(O)OP(=O)(O)O)[C@@H](O)[C@H]1O", "note": "[ATP]", "values": [{"measurement": "effect of the substance on T cell viability", "setting": "[1]", "value": "suppressed"}, {"measurement": "effect of the substance on T cell proliferation", "setting": "[2]", "value": "suppressed"}, {"measurement": "effect of the substance on TNF production", "setting": "[3]", "value": "suppressed"}, {"measurement": "Tet^+ of CD8^+ T cells", "setting": "[4]", "value": "profound suppression"}, {"measurement": "antigen-specific killing by the PBMC population", "setting": "[5]; ATP present during the expansion phase", "value": "reduced"}]}, {"compound": "Nc1ccn([C@@H]2O[C@H](CO)[C@@H](O)[C@H]2O)c(=O)n1", "note": "[cytidine]", "values": [{"measurement": "effect of the substance on T cell proliferation", "setting": "[2]", "value": "did not suppress"}, {"measurement": "restoration of adenosine-mediated inhibition of T cell proliferation", "setting": "[2]", "value": "not observed"}]}, {"compound": "Nc1ncnc2nc(-c3ccc(N4CCOCC4)nc3)cc(-c3cccc(Br)c3)c12", "note": "[ABT-702, 4-amino-5-(3-bromophenyl)-7-(6-morpholino-pyridin-3-yl)pyrido[2,3-d]pyrimidine, reference compound]", "values": [{"measurement": "levels of UMP, UDP, UTP and CTP (metabolites downstream of UMPS)", "setting": "[6]", "value": "restored pyrimidine metabolism"}, {"measurement": "EC50", "setting": "[2]; read-out: EC50, rescue of activated CD8^+ T cell proliferation", "value": 23.8, "unit": "nM"}]}, {"compound": "Nc1ncnc2c1ncn2[C@@H]1O[C@H](CO)[C@@H](O)[C@H]1O", "note": "[Adenosine, adenosine]", "values": [{"measurement": "mitochondrial respiration (OCR)", "setting": "[7]", "value": "reduced"}, {"measurement": "effect of the substance on T cell viability", "setting": "[1]", "value": "loss of viability"}, {"measurement": "levels of UMP, UDP, UTP and CTP (metabolites downstream of UMPS)", "setting": "[6]", "value": "dose-dependently depleted"}, {"measurement": "levels of carbamoyl aspartate, DHO and orotate", "setting": "[6]", "value": "increase"}, {"measurement": "levels of adenosine metabolites (purines)", "setting": "[6]; adenosine-treated versus DMSO-treated T cells", "value": "Dose-dependent increases"}, {"measurement": "fraction of cells producing IFNγ and granzyme B", "setting": "[8]", "value": "suppressed"}, {"measurement": "effect of the substance on T cell proliferation", "setting": "[2]", "value": "inhibited"}, {"measurement": "effect of the substance on IFNγ production", "setting": "[9]; activated human T cells", "value": "inhibited"}, {"measurement": "effect of the substance on TNF production", "setting": "[3]", "value": "inhibited"}]}, {"compound": "Anti-PD-1: anti-PD-1 antibody OPDIVO (nivolumab), Bristol-Myers Squibb [reference compound]", "values": [{"measurement": "antigen-specific killing by the PBMC population", "setting": "[5]; in the absence of ATP", "value": "did not have a clear effect"}]}, {"compound": "O=c1ccn([C@@H]2O[C@H](CO)[C@@H](O)[C@H]2O)c(=O)[nH]1", "note": "[Uridine, uridine]", "values": [{"measurement": "levels of UMP, UDP, UTP and CTP (metabolites downstream of UMPS)", "setting": "[6]", "value": "normalized pyrimidine levels"}, {"measurement": "EC50", "setting": "[2]; read-out: EC50, rescue of T cell proliferation", "value": 1100, "unit": "nM"}, {"measurement": "effect of the substance on T cell proliferation", "setting": "[2]", "value": "did not suppress"}, {"measurement": "restoration of adenosine-mediated inhibition of T cell proliferation", "setting": "[2]", "value": "restored"}]}, {"compound": "COc1cc(C(=O)OCCCN2CCCN(CCCOC(=O)c3cc(OC)c(OC)c(OC)c3)CC2)cc(OC)c1OC", "note": "[Dilazep, dilazep, reference compound]", "values": [{"measurement": "restoration of T cell viability", "setting": "[1]; [10]", "value": "restored"}, {"measurement": "levels of UMP, UDP, UTP and CTP (metabolites downstream of UMPS)", "setting": "[6]", "value": "increased"}, {"measurement": "levels of carbamoyl aspartate, DHO and orotate", "setting": "[6]", "value": "reduced"}, {"measurement": "restoration of T cell proliferation", "setting": "[2]; [10]", "value": "restored"}, {"measurement": "[3H]adenosine uptake", "setting": "activated human T cells", "value": "reduced"}, {"measurement": "IFNγ production", "setting": "[9]; in the presence of 100 µM adenosine", "value": "restored"}]}]}
